According to ChEMBL document CHEMBL5108048, “Potent GCN2 Inhibitor Capable of Reversing MDSC-Driven T Cell Suppression Demonstrates In Vivo Efficacy as a Single Agent and in Combination with Anti-Angiogenesis Therapy” (J Med Chem, 2022):

How the values were obtained:
[1] = molecular target: T1, eIF-2-alpha kinase GCN2 (Homo sapiens, UniProt Q9P2K8); assay: Inhibition of GCN2 (unknown origin)
[2] = molecular target: T1, eIF-2-alpha kinase GCN2; assay: Inhibition of GCN2 in human SK-OV-3 cells assessed as reduction in phosphorylation of eIF2alpha by cellular assay; assay type: cell-based
[3] = Oral bioavailability in Sprague-Dawley rat at 2 mg/kg; assay type: ADME, organism-based; details: in vivo
[4] = […] in Sprague-Dawley rat […] assessed as half life at 0.5 mg/kg,iv; assay type: ADME, organism-based
[5] = AUC (0-infinity) in Sprague-Dawley rat at 2 mg/kg,po; assay type: ADME, organism-based; parameters: time infinity, dose 2 mg/kg, route po; details: in vivo

T1 sequence (Q9P2K8 whole entry): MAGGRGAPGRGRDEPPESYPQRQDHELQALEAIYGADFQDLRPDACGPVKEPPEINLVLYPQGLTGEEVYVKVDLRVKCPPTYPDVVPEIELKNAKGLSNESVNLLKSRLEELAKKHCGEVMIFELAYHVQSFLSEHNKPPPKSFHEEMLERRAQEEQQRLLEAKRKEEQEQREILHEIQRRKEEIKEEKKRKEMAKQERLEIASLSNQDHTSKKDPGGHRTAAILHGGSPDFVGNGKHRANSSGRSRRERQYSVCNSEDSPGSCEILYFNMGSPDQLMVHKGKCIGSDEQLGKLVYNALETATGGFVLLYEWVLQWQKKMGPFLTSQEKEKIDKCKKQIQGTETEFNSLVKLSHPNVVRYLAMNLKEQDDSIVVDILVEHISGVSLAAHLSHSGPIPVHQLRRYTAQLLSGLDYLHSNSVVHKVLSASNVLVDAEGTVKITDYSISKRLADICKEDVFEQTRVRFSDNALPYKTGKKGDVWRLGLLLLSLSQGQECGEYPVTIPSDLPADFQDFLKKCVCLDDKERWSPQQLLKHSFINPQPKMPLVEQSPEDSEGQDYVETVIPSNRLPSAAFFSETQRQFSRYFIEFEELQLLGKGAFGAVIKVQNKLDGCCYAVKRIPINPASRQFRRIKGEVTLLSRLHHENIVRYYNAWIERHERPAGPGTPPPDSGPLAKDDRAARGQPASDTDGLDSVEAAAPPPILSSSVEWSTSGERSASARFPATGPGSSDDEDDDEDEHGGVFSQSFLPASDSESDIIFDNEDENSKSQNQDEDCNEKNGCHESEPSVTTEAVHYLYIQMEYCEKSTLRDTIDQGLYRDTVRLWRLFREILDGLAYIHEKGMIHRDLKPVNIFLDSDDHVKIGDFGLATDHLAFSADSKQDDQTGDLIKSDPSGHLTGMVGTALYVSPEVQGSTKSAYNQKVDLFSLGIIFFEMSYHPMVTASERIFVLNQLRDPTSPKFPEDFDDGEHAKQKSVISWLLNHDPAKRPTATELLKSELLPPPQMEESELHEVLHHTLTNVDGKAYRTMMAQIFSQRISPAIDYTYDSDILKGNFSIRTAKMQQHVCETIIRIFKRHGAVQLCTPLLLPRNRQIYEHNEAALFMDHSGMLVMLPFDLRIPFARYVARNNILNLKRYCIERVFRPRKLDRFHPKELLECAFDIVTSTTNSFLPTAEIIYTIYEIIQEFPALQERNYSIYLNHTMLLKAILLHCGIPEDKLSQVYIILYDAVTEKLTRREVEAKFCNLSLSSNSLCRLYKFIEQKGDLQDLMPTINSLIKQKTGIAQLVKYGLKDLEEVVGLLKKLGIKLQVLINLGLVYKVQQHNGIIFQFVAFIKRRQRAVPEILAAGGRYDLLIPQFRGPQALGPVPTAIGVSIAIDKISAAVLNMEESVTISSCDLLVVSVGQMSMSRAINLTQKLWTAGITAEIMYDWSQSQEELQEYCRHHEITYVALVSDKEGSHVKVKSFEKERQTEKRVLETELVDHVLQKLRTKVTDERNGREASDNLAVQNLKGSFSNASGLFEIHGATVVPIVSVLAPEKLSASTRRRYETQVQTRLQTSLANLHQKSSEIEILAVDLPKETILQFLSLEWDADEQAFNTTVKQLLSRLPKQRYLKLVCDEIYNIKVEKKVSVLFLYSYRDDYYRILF

Row | SMILES | IC50 [1] [nM] | IC50 [2] [nM] | also measured
1 | CS(=O)(=O)N1CC[C@@H](Nc2ncc3c(Br)nn(-c4ccc5ncccc5c4)c3n2)C1 | 90 | 378 | –
2 | COCCC(=O)N[C@@H]1CC[C@@H](Nc2ncc3c(Br)nn(-c4ccc5ncccc5c4)c3n2)C1 | 74 | 159 | –
3 | COCCS(=O)(=O)N[C@@H]1CC[C@@H](Nc2ncc3c(Br)nn(-c4ccc5ncccc5c4)c3n2)C1 (relative stereo) | 55 | 262 | –
4 | CNC(=O)[C@]1(C)CC[C@@H](Nc2ncc3c(Br)nn(-c4ccc(-c5nnc(C)s5)c(CNS(C)(=O)=O)c4)c3n2)C1 | 109 | – | –
5 | CCn1cc(Nc2ncc3cccc(-c4ccc(OC)cc4)c3n2)cn1 | > 1000 | – | –
6 | COCc1noc([C@@H]2CC[C@@H](Nc3ncc4c(Br)nn(-c5ccc6ncccc6c5)c4n3)C2)n1 | 106 | – | –
7 | CCn1cc(Nc2ncc3c(C)nn(-c4ccc(OC)cc4)c3n2)cn1 | 81 | – | –
8 | CCn1cc(Nc2ncc3cnn(-c4ccc(OC)cc4)c3n2)cn1 | 133 | – | –
9 | CCn1cc(Nc2ncc3cccc(Nc4ccc(OC)cc4)c3n2)cn1 | > 1000 | – | –
10 | COCCNC(=O)[C@H]1CC[C@@H](Nc2ncc3c(Br)nn(-c4ccc5ncccc5c4)c3n2)C1 | 61 | 156 | –
11 | COCCNC(=O)CNc1ncc2c(Br)nn(-c3ccc4ncccc4c3)c2n1 | > 1000 | – | –
12 | CCn1cc(Nc2ncc3ccn(-c4ccc(OC)cc4)c3n2)cn1 | 405 | – | –
13 | CNC(=O)[C@]1(C)CC[C@@H](Nc2ncc3c(Br)nn(-c4ccc(-c5nnc(C)s5)c(CS(C)(=O)=O)c4)c3n2)C1 | 211 | – | –
14 | CNC(=O)[C@]1(C)CC[C@@H](Nc2ncc3c(Br)nn(-c4ccc(-c5ncc(C)s5)cc4)c3n2)C1 | 76 | – | –
15 | CCn1cc(Nc2ncc3c(C)nn(-c4ccc(C#N)cc4)c3n2)cn1 | 56 | – | –
16 | CNC(=O)[C@]1(C)CC[C@@H](Nc2ncc3c(Br)nn(-c4ccc(-c5nnc(C)s5)c(CO)c4)c3n2)C1 | 91 | – | –
17 | CNC(=O)[C@]1(C)CC[C@@H](Nc2ncc3c(Br)nn(-c4ccc(-c5nnc(C)s5)c(CC#N)c4)c3n2)C1 | 78 | – | –
18 | COCCNC(=O)CCNc1ncc2c(Br)nn(-c3ccc4ncccc4c3)c2n1 | > 1000 | – | –
19 | CCn1cc(Nc2ccn3ncc(-c4ccc(OC)cc4)c3n2)cn1 | > 1000 | – | –
20 | COCCNC(=O)[C@@H]1CC[C@H](Nc2ncc3c(Br)nn(-c4ccc5ncccc5c4)c3n2)C1 | 923 | – | –
21 | CNC(=O)[C@]1(C)CC[C@@H](Nc2ncc3c(Br)nn(-c4ccc(-c5nnc(C)s5)c(CCN(C)C)c4)c3n2)C1 | 29 | – | –
22 | COCCNC(=O)[C@H]1CC[C@H](Nc2ncc3c(Br)nn(-c4ccc5ncccc5c4)c3n2)CC1 | 159 | 628 | –
23 | CNS(=O)(=O)[C@@H]1CC[C@@H](Nc2ncc3c(Br)nn(-c4ccc5ncccc5c4)c3n2)C1 | 43 | 106 | –
24 | CNC(=O)[C@]1(C)CC[C@@H](Nc2ncc3c(Br)nn(-c4ccc(-c5nnc(C)s5)c(S(C)(=O)=O)c4)c3n2)C1 | 61 | – | –
25 | COCCNC(=O)[C@H]1CC[C@H](Nc2ncc3c(Br)nn(-c4ccc5ncccc5c4)c3n2)C1 | 144 | 183 | –
26 | FC(F)(F)c1nn(-c2ccc3ncccc3c2)c2nc(Nc3cnn(C4CCNCC4)c3)ncc12 | 168 | – | –
27 | CNC(=O)[C@]1(C)CC[C@@H](Nc2ncc3c(Br)nn(-c4ccc(-c5nnc(C)s5)cc4F)c3n2)C1 | 359 | – | –
28 | COCCNC(=O)[C@H]1C[C@H](Nc2ncc3c(Br)nn(-c4ccc5ncccc5c4)c3n2)C1 | 40 | 86 | –
29 | COCCNC(=O)[C@H]1CC[C@@H](Nc2ncc3c(Br)nn(-c4ccc5ncccc5c4)c3n2)CC1 | 211 | 763 | –

Now those with a lower IC50 [1], led by results:

Row | IC50 [1] [nM] | IC50 [2] [nM] | SMILES | also measured
30 | 5 | – | Clc1nn(-c2ccc3ncccc3c2)c2nc(Nc3cnn(C4CCNCC4)c3)ncc12 | –
31 | 5 | 20 | COCCNC(=O)[C@@H]1CC[C@@H](Nc2ncc3c(Br)nn(-c4ccc5ncccc5c4)c3n2)C1 | –
32 | 23 | – | CCn1cc(Nc2ncc3c(C)nn(-c4ccc5ncccc5c4)c3n2)cn1 | –
33 | 21 | 25 | CNC(=O)[C@@H]1CC[C@@H](Nc2ncc3c(Br)nn(-c4ccc5ncccc5c4)c3n2)C1 | –
34 | 15 | 240 | CNC(=O)[C@]1(C)CC[C@@H](Nc2ncc3c(Br)nn(-c4ccc(-c5nnc(C)s5)c(CCN)c4)c3n2)C1 | –
35 | 11 | – | Cc1nn(-c2ccc3ncccc3c2)c2nc(Nc3cnn(C4CCNCC4)c3)ncc12 | –
36 | 2 | 9 | CNC(=O)[C@]1(C)CC[C@@H](Nc2ncc3c(Br)nn(-c4ccc(-c5nnc(C)s5)c(CCS(C)(=O)=O)c4)c3n2)C1 | bioavailability [3]: 3%; half-life [4]: 39 min; AUC(0-inf) [5]: 26 ng·h/mL
37 | 8 | 35 | CNC(=O)[C@]1(C)CC[C@@H](Nc2ncc3c(Br)nn(-c4ccc(-c5nnc(C)s5)c(C#N)c4)c3n2)C1 | bioavailability [3]: 39%; half-life [4]: 51 min; AUC(0-inf) [5]: 1150 ng·h/mL
38 | 16 | 25 | CNC(=O)[C@]1(C)CC[C@@H](Nc2ncc3c(Br)nn(-c4ccc(-c5nnc(C)s5)c(CCO)c4)c3n2)C1 | bioavailability [3]: 15%; half-life [4]: 47 min; AUC(0-inf) [5]: 518 ng·h/mL
39 | 3 | 610 | Brc1nn(-c2ccc3ncccc3c2)c2nc(Nc3cnn(C4CCNCC4)c3)ncc12 | –
40 | 17 | 21 | CNC(=O)[C@]1(C)CC[C@@H](Nc2ncc3c(Br)nn(-c4ccc5ncccc5c4)c3n2)C1 | –
41 | 21 | 545 | Brc1nn(-c2ccc3ncccc3c2)c2nc(N[C@@H]3CC[C@@H](c4ncc[nH]4)C3)ncc12 (relative stereo) | –
42 | 8 | 33 | CNC(=O)[C@]1(C)CC[C@@H](Nc2ncc3c(Br)nn(-c4ccc(-c5nnc(C)s5)c(F)c4)c3n2)C1 | –
43 | 27 | – | CNC(=O)[C@]1(C)CC[C@@H](Nc2ncc3c(Br)nn(-c4ccc(-c5cnc(C)s5)cc4)c3n2)C1 | –
44 | 10 | 29 | CNC(=O)[C@]1(C)CC[C@@H](Nc2ncc3c(Br)nn(-c4ccc(-c5nnc(C)s5)c(CCC#N)c4)c3n2)C1 | bioavailability [3]: 42%; half-life [4]: 13 min; AUC(0-inf) [5]: 1900 ng·h/mL
45 | 16 | 16 | CNC(=O)[C@]1(C)CC[C@@H](Nc2ncc3c(Br)nn(-c4ccc(-c5nnc(C)o5)cc4)c3n2)C1 | –
